Measurements taken from patent publication EP0046242A1, “Anti-tumor agent comprising an organosilicon compound” (Shin-Etsu Chemical Co., Ltd., priority 1980, dated 1982).
Values after ≈ are worked out from the molar mass of the structure shown. Counter-ions that a name gives are not always drawn.

test system: B-16 melanoma cells implanted in mice; test: Animal test of growth inhibition of implanted B-16 melanoma in mice; format: in vivo; settings: Mus musculus, B16, read-out: Tumor inhibiting efficiency, female BDF1-JCR mice, 1 x 10^5 B-16 cells subcutaneously; oral, 100 mg once a day for 5 days from second day; tumor weight vs control at day 14
Experimental: Animal tests were conducted to examine the activity of several compounds including 2-(2-aminoethylthio)ethyl trimethyl silane in the inhibiting power against the growth of the B-16 melanoma cells implanted in mice as the test animals.
Thus each of 12 female mice of the BDF1-JCR lineage was implanted subcutaneously with 1 x 10^5 cells of the B-16 black tumor.
Six of the thus treated mice were bred as such as a control group and the other six mice as the test group were orally administrated once a day with 100 mg of the test compound for 5 days beginning with the second day of the implantation.
The results of the tests were expressed by the tumor inhibiting efficiency in % calculated by the following equation, in which W^1 is the averaged tumor weight per mouse in the control group and W^2 is the averaged tumor weight per mouse in the test group. [formula]
For comparison, similar animal tests were undertaken with FT-207 as a derivative of 5-fluorouracil with the dose amount at one time increased to 130 mg.

Row | Structure (SMILES) | inhibition in vivo at 100 mg
1 | CCN(CC)CCSCCC[Si](CC)(CC)CC [Et3Si-(-CH2-)3-S-(-CH2-)2-NEt2] | 76.7%
2 | CC[Si](CC)(CC)CSCCN [Et3Si-CH2-S-(-CH2-)2-NH2, (2-aminoethylthio)methyl triethyl silane] | 91.1%
3 | CCN(CC)CSCC[Si](C)(CC)CC [Me·Et2Si-(-CH2-)2-S-CH2-NEt2] | 86.9%
4 | CCN(CC)CSC[Si](C)(CC)CC [Me·Et2Si-CH2-S-CH2-NEt2] | 86.5%
5 | CCN(CC)CSCCC[Si](CC)(CC)CC [Et3Si-(-CH2-)3-S-CH2-NEt2] | 84.4%
6 | C[Si](C)(CCSCCN)CCC(F)(F)F [(CF3CH2CH2)Me2Si-(CH2-)2-S-(-CH2-)2-NH2, 2-(2-aminoethylthio)-ethyl 3,3,3-trifluoropropyl dimethyl silane] | 96.8%
7 | C[Si](C)(C)CCSCCN [Me3Si-(-CH2-)2-S-(-CH2-)2-NH2, 2-(2-aminoethylthio)ethyl trimethyl silane] | 95.6%
8 | C=C[Si](C)(C)CCSCCN [Vi·Me2Si-(-CH2-)2-S-(-CH2-)2-NH2, 2-(2-aminoethylthio) ethyl vinyl dimethyl silane] | 95.7%
9 | CC[Si](CC)(CC)CCSCCN [Et3Si-(-CH2-)2-S-(-CH2-)2-NH2, 2-(2-aminoethylthio)ethyl triethyl silane] | 90.8%
10 | CCN(CC)CSCC[Si](C)(C)C [Me3Si-(-CH2-)2-S-CH2-NEt2] | 89.2%
11 | C[Si](C)(CCSCCN)c1ccccc1 [Ph·Me2Si-(-CH2-)2-S-(-CH2-)2-NH2, 2-(2-aminoethylthio)ethyl phenyl dimethyl silane] | 82.6%
12 | CCN(CC)CSCCC[Si](C)(C)C [Me3Si-(-CH2-)3-S-CH2-NEt2] | 83.9%
13 | CCN(CC)CSC[Si](CC)(CC)CC [Et3Si-CH2-S-CH2-NEt2] | 81.7%
14 | C[Si](C)(C)CCCSCCN [Me3Si-(-CH2-)3-S-(-CH2-)2-NH2, 3-(2-aminoethylthio)propyl trimethyl silane] | 93.9%
15 | CCN(CC)CSCC[Si](CC)(CC)CC [Et3Si-(-CH2)2-S-CH2-NEt2] | 90.5%

same assay, conditions: comparison; female BDF1-JCR mice, B-16 cells subcutaneously; dose at one time 130 mg; tumor weight vs control at day 14

Row | Structure (SMILES) | Tumor inhibiting efficiency
16 | O=c1[nH]c(=O)n(C2CCCO2)cc1F (stereo not drawn) [FT-207, reference compound] | 20.5%

same assay, conditions: female BDF1-JCR mice, 1 x 10^5 B-16 cells subcutaneously; oral, 100 mg once a day for 5 days from second day; tumor weight vs control at day 14

Row | Structure (SMILES) | Tumor inhibiting efficiency
17 | C[Si](C)(C)CCSCCN [Me3Si-(-CH2-)2-S-(-CH2-)2-NH2·HCl, hydrochloride of 2-(2-aminoethylthio)ethyl trimethyl silane] | 97.9%
18 | C[Si](C)(C)CCSCCN [Me3Si-(-CH2-)2-S-(-CH2-)2-NH2·CH3COOH] | 95.0%

test system: Ehrlich's cancer cells; test: In vitro tissue culture test of tumor cell growth inhibition; format: cell-based; settings: Eagle's medium with 10 % calf blood plasma, 37 °C, compound added after 24 hours, three further days
Experimental: (§1) An in vitro test by tissue culture was undertaken for the activity of 2-(2-aminoethylthio)ethyl trimethyl silane against the growth of three kinds of tumor cells. The tumor cells used in the test were Ehrlich's cancer cells, Lewis lung cancer cells and B-16 melanoma cells and each kind of the above tumor cells was cultured in several Eagle's nutrient media admixed with 10 % of calf blood plasma at 37 °C.
(§2) After 24 hours from the start of the culture, 2-(2-amino- ethylthio)ethyl trimethyl silane was added to each of the nutrient media in a different concentration and, after additional three days at the same temperature, the conentration IC50 was determined with which the multiplication of the tumor cells was inhibited in 50 % of the tested groups. The results were as shown below

Row | Structure (SMILES) | IC50
19 | C[Si](C)(C)CCSCCN [Me3Si-(-CH2-)2-S-(-CH2-)2-NH2, 2-(2-aminoethylthio)ethyl trimethyl silane] | 12 µg/mL (≈ 67.6 µM)

test system: Lewis lung cancer cells; test: as above; format: cell-based; settings: Lewis lung carcinoma, Eagle's medium with 10 % calf blood plasma, 37 °C, compound added after 24 hours, three further days
Experimental: as §1, §2

Row | Structure (SMILES) | IC50
20 | C[Si](C)(C)CCSCCN [Me3Si-(-CH2-)2-S-(-CH2-)2-NH2, 2-(2-aminoethylthio)ethyl trimethyl silane] | 14 µg/mL (≈ 78.9 µM)

test system: B-16 melanoma cells; test: as above; format: cell-based; settings: Mus musculus, B16, Eagle's medium with 10 % calf blood plasma, 37 °C, compound added after 24 hours, three further days
Experimental: as §1, §2

Row | Structure (SMILES) | IC50
21 | C[Si](C)(C)CCSCCN [Me3Si-(-CH2-)2-S-(-CH2-)2-NH2, 2-(2-aminoethylthio)ethyl trimethyl silane] | 18 µg/mL (≈ 101 µM)
